Measurements taken from US12435087B2, “Modulators of DCN-1 and methods of use thereof” (Cellarity, Inc., priority 2023, dated 2025).
Read-outs that look alike come from different tables or passages of the source.

Target: DCN1 (DCUND1) protein PONY domain (Homo sapiens (Human), UniProt Q96GG9)
Experiment: TR-FRET assay (binding to DCN-1, displacement of FAM-labeled probe)
Source text: (§1) The TR-FRET assay was designed following the Scott et al. protocol (Scott et al., Nat Chem Biol. 2017 August; 13(8): 850-857. doi:10.1038/nchembio.2386). The recombinant form of the DCN1 (DCUND1) protein PONY domain was produced using an E. coli expression system at Viva Biotech (China). The DCN1 protein was biotinylated (EZ sulfo-NHS-LC-biotin; Thermofisher) for labeling with streptavidin terbium (Tb) cryptate in the reaction. The probe was changed to a non-covalent DCN1 inhibitor labeled with carboxyfluorescein (FAM; Zhou et al., Nat Commun. 2017; 8: 1150. doi: 10.1038/s41467-017-01243-7). Buffer conditions were modified to enhance protein stability by exchanging Tween20 for TritonX and increasing NaCl to 200 mM. The compounds were screened against 5 nM DCN1 and 20 nM FAM-probe or 0.31 nM DCN1 and 900 nM total probe (100 nM FAM-labeled plus 800 nM unlabeled). The TR-FRET ratio between Tb-DCN1 and the FAM-labeled probe was measured in a 384-well opti-plate (Perkin Elmer) using a plate reader (BMG) at 1, 5, and 24 hrs after treatment with compound (final DMSO concentration of 0.1%). The ratio was normalized to the high (DCN1 and FAM-probe) and low (DCN1 and no probe) controls for a readout of % activity (=100*(x−low)/(high−low).
A TR-FRET assay was performed to evaluate the ability of the compounds to bind the DCN-1 protein.
as §1, with “850-857. Doi: 10.1038/nchembio.2386).” for “850-857. doi:10.1038/nchembio.2386).”, “the DCNI” for “the DCN1”, “1150. Doi:” for “1150. doi:”, “0.1%).” for “0.1%). The ratio was normalized to the high (DCN1 and FAM-probe) and low (DCN1 and no probe) controls for a readout of % activity (=100*(x−low)/(high−low).”

[1] = 24 hr after treatment with compound, read-out: TR FRET IC50 24 hr
[2] = TR FRET IC50 1 hr (nM), 1 hr after treatment with compound
[3] = read-out: TR FRET IC50 1 hr, 1 hr after treatment with compound

Sequence of DCN1 (DCUND1) protein PONY domain (Q96GG9 60-248): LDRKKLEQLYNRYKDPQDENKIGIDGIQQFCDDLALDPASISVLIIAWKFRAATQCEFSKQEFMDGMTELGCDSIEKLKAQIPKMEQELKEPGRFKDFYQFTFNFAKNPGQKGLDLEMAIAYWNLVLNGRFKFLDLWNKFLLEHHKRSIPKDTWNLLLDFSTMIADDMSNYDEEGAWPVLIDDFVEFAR

`CC#CC(=O)N(C)c1ccccc1[C@H]1c2cnn(-c3ccccc3)c2N(CC)C(=O)[C@@H]1NC(=O)c1cccc(C(F)(F)F)c1` (racemic) [Compound I-98, ˜{N}—[˜{rac}-(4˜{S},5˜{R})-4-[2-[but-2-ynoyl(methyl)amino]phenyl]-7-ethyl-6-oxo-1-phenyl-4,5-dihydropyrazolo[3,4-b]pyridin-5-yl]-3-(trifluoromethyl)benzamide] was tested. Which IC50 [1] did it give?
Its IC50 is 1000 to 3000 nM.

And the IC50 [2]?
The IC50 was 1000 to 3000 nM.

Which results are given for `CCN1C(=O)[C@@H](NC(=O)c2nccc(C(F)(F)F)n2)[C@H](c2cccc(CNC(=O)C(COC)CN3CCC(F)(F)C3)c2)c2cnn(-c3ccccc3)c21` (stereo partly drawn) [Compound I-360]?
IC50 [1]: 1000 to 3000 nM; IC50 [2]: 1000 to 3000 nM

`CCN1C(=O)[C@@H](NC(=O)c2cccc(C(F)(F)F)c2)[C@H](c2cncc(NC(=O)C3=CCC3)c2)c2cnn(-c3ccccc3)c21` [Compound I-319] was tested. Which IC50 [1] did it give?
Its IC50 is 200 to 1000 nM.

What about the IC50 [2] of the same compound?
Its IC50 is 1000 to 3000 nM.

With `C=C(C(=O)N(C)Cc1cccc([C@@H]2c3cnn(-c4ccccc4)c3N(CC)C(=O)[C@H]2NC(=O)c2ccn(C(F)(F)F)n2)c1)C(C)N(C)C1COC1` (stereo partly drawn) [Compound I-313] as the compound, how does the IC50 [1] read?
Its IC50 is no more than 200 nM.

And the IC50 [2]?
The IC50 was 1000 to 3000 nM.

Which IC50 [1] does the source give for `C=C(CN1C2CCC1COC2)C(=O)NCc1cccc([C@@H]2c3cnn(-c4ccccc4)c3N(CC)C(=O)[C@H]2NC(=O)c2cccc(C(F)(F)F)c2)c1` [Compound I-289] here?
The IC50 was no more than 200 nM.

And the IC50 [3]?
The IC50 was no more than 200 nM.

Which results are given for `C=C(CN(C)C1COC1)C(=O)NCc1cccc([C@@H]2c3c(C)nn(-c4ccccc4)c3N(CC)C(=O)[C@H]2NC(=O)c2cccc(C(F)(F)F)c2)c1` [Compound I-312]?
IC50 [1]: ≤ 200 nM; IC50 [3]: ≤ 200 nM

Which results are given for `C=C(CN1CCN(C2COC2)CC1)C(=O)NCc1cccc([C@@H]2c3cnn(-c4ccccc4)c3N(CC)C(=O)[C@H]2NC(=O)c2nccc(C(F)(F)F)n2)n1` [Compound I-354]?
IC50 [1]: 1000 to 3000 nM; IC50 [2]: 1000 to 3000 nM

Which results are given for `C=C(CN(C)CC1COC1)C(=O)NCc1cccc([C@@H]2c3cnn(-c4ccccc4)c3N(CC)C(=O)[C@H]2NC(=O)c2cccc(C(F)(F)F)c2)c1` [Compound I-61]?
IC50 [1]: ≤ 200 nM; IC50 [3]: ≤ 200 nM

How did the IC50 [1] turn out when `C=C(CN1CCC12COC2)C(=O)N(C)Cc1cccc([C@@H]2c3cnn(-c4ccccc4)c3N(CC)C(=O)[C@H]2NC(=O)c2ccn(C(F)(F)F)n2)c1` [Compound I-371] was run?
Its IC50 is 200 to 1000 nM.

What about the IC50 [2] of the same compound?
Its IC50 is 1000 to 3000 nM.

With `C=CC(=O)N(C)c1cccc([C@H]2c3cnn(-c4ccccc4)c3N(CC)C(=O)[C@@H]2NC(=O)c2cccc(C(F)(F)F)c2)c1` (racemic) [Compound I-74] as the compound, how does the IC50 [1] read?
The IC50 was 1000 to 3000 nM.

What about the IC50 [2] of the same compound?
The IC50 was 1000 to 3000 nM.

Which results are given for `CCN1C(=O)[C@H](NC(=O)c2cccc(C(F)(F)F)c2)[C@@H](c2cccc(NC(=O)/C=C/CN(C)C)c2)c2c(CN(C)C)nn(-c3ccccc3)c21` (racemic) [Compound I-212, ˜{N}—[˜{rac}-(4˜{S},5˜{R})-3-[(dimethylamino)methyl]-7-ethyl-6-oxo-1-phenyl-4-[3-[[˜{rac}-(˜{E})-4-(dimethylamino)but-2-enoyl]amino]phenyl]-4,5-dihydropyrazolo[3,4-b]pyridin-5-yl]-3-(trifluoromethyl)benzamide]?
IC50 [1]: ≤ 200 nM; IC50 [2]: 200 to 1000 nM

How did the IC50 [1] turn out when `CCN1C(=O)[C@@H](NC(=O)c2cccc(C(F)(F)F)c2)[C@@H](c2ccc(F)c(NC(=O)/C=C/CN(C)C)c2)c2cnn(-c3ccccc3)c21` (racemic) [Compound I-129] was run?
The IC50 was 1000 to 3000 nM.

What about the IC50 [2] of the same compound?
The IC50 was 1000 to 3000 nM.

With `C=CC(=O)NCc1ccccc1[C@@H]1c2cnn(-c3ccccc3)c2N(CC)C(=O)[C@H]1NC(=O)c1cccc(C(F)(F)F)c1` (racemic) [Compound I-113] as the compound, how does the IC50 [1] read?
Its IC50 is 1000 to 3000 nM.

And the IC50 [2]?
The IC50 was 1000 to 3000 nM.

With `C=C(CN1CCOCC1)C(=O)N[C@H](C)c1cccc([C@@H]2c3cnn(-c4ccccc4)c3N(CC)C(=O)[C@H]2NC(=O)c2nccc(C(F)(F)F)n2)c1` (mixture of isomers) [Compound I-281] as the compound, how does the IC50 [1] read?
Its IC50 is 200 to 1000 nM.

What about the IC50 [2] of the same compound?
The IC50 was 1000 to 3000 nM.

With `C=C(CN1CC(F)(F)C1)C(=O)NCc1cccc([C@@H]2c3cnn(-c4ccccc4)c3N(CC)C(=O)[C@H]2NC(=O)c2nccc(C(F)(F)F)n2)c1` [Compound I-261] as the compound, how does the IC50 [1] read?
The IC50 was no more than 200 nM.

And the IC50 [2]?
The IC50 was 200 to 1000 nM.

Which results are given for `CCN1C(=O)[C@@H](NC(=O)c2cccc(C(F)(F)F)c2)[C@H](c2ccccc2CNC#N)c2cnn(-c3ccccc3)c21` (racemic) [Compound I-31]?
IC50 [1]: 1000 to 3000 nM; IC50 [2]: 1000 to 3000 nM

What does the source list for `C=C(CN1CC2(COC2)C1)C(=O)NCc1cccc([C@H]2c3cnn(-c4ccccc4)c3N(CC)C(=O)[C@H]2NC(=O)c2cccc(C(F)(F)F)c2)c1` [Compound I-156]?
IC50 [1]: 200 to 1000 nM; IC50 [2]: 1000 to 3000 nM

With `C=C(CN1CC2CC(C1)O2)C(=O)N(C)Cc1cccc([C@@H]2c3cnn(-c4ccccc4)c3N(CC)C(=O)[C@H]2NC(=O)c2ccn(C3CC3)n2)c1` [Compound I-258] as the compound, how does the IC50 [2] read?
Its IC50 is 1000 to 3000 nM.

Which results are given for `C=C(CN1CC2CC(C1)O2)C(=O)N(C)Cc1cccc([C@@H]2c3cnn(-c4ccccc4)c3N(CC)C(=O)[C@H]2NC(=O)c2ccn(C(F)(F)F)n2)c1` [Compound I-253]?
IC50 [1]: ≤ 200 nM; IC50 [2]: 1000 to 3000 nM

With `C=C(CN1CCCC1)C(=O)NCc1cccc([C@@H]2c3cnn(-c4ccccc4)c3N(CC)C(=O)[C@H]2NC(=O)c2cccc(C(F)(F)F)c2)c1` [Compound I-264] as the compound, how does the IC50 [1] read?
The IC50 was no more than 200 nM.

And the IC50 [3]?
Its IC50 is no more than 200 nM.

Which IC50 [1] does the source give for `C=C(C(=O)NCc1cccc([C@@H]2c3cnn(-c4ccccc4)c3N(CC)C(=O)[C@H]2NC(=O)c2ccn(C(F)(F)F)n2)c1)C(C)N1CCOCC1` (stereo partly drawn) [Compound I-296] here?
Its IC50 is no more than 200 nM.

What about the IC50 [3] of the same compound?
The IC50 was no more than 200 nM.

What does the source list for `C/C=C(/C(=O)Nc1cccc([C@@H]2c3cnn(-c4ccccc4)c3N(CC)C(=O)[C@H]2NC(=O)c2nccc(C(F)(F)F)n2)c1)C(C)N1CCC1` (stereo partly drawn) [Compound I-385]?
IC50 [1]: 1000 to 3000 nM; IC50 [2]: 1000 to 3000 nM

Which IC50 [1] does the source give for `CCN1C(=O)[C@@H](NC(=O)c2cccc(C(F)(F)F)c2)[C@H](c2cccc(CNC(=O)C3=C(C(=O)OC)CC3)c2)c2cnn(-c3ccccc3)c21` [Compound I-155] here?
The IC50 was no more than 200 nM.

What about the IC50 [2] of the same compound?
Its IC50 is 1000 to 3000 nM.

`C=C(CN1CCOCC1)C(=O)NCc1cccc([C@@H]2c3cnn(-c4ccccc4)c3N(CC)C(=O)[C@H]2NC(=O)c2ccn(CC#N)n2)c1` [Compound I-340, 1-(cyanomethyl)-N-((4R,5S)-7-ethyl-4-(3-((2-(morpholinomethyl)acrylamido)methyl)phenyl)-6-oxo-1-phenyl-4,5,6,7-tetrahydro-1H-pyrazolo[3,4-b]pyridin-5-yl)-1H-pyrazole-3-carboxamide] was tested. Which IC50 [1] did it give?
The IC50 was 200 to 1000 nM.

And the IC50 [2]?
The IC50 was 1000 to 3000 nM.

How did the IC50 [1] turn out when `C/C=C(\CN1CCC12COC2)C(=O)Nc1cccc([C@@H]2c3cnn(-c4ccccc4)c3N(CC)C(=O)[C@H]2NC(=O)c2nccc(C(F)(F)F)n2)c1` [Compound I-251] was run?
The IC50 was no more than 200 nM.

And the IC50 [2]?
The IC50 was 1000 to 3000 nM.

What does the source list for `CCN1C(=O)[C@@H](NC(=O)c2cccc(C(F)(F)F)c2)[C@H](c2cccc(CNC(=O)/C=C/CN(C)C)c2)c2cnn(-c3ccccc3)c21` (racemic) [Compound I-53]?
IC50 [1]: 1000 to 3000 nM; IC50 [2]: 1000 to 3000 nM

For `C=C(F)C(=O)Nc1cccc([C@H]2c3c(C)nn(-c4ccccc4)c3N(CC)C(=O)[C@@H]2NC(=O)c2cccc(C(F)(F)F)c2)c1` (racemic) [Compound I-140, N-((4S,5R)-7-ethyl-4-(3-(2-fluoroacrylamido)phenyl)-3-methyl-6-oxo-1-phenyl-4,5,6,7-tetrahydro-1H-pyrazolo[3,4-b]pyridin-5-yl)-3(trifluoromethyl) benzamide], which IC50 [1] is on record?
The IC50 was greater than 3000 nM.

What about the IC50 [2] of the same compound?
Its IC50 is greater than 3000 nM.

With `CCN1C(=O)[C@@H](NC(=O)c2nccc(C(F)(F)F)n2)[C@H](c2ccccc2/C=C/C#N)c2cnn(-c3ccccc3)c21` (racemic) [Compound I-259, rac-N-((4R,5S)-4-(2-((E)-2-cyanovinyl)phenyl)-7-ethyl-6-oxo-1-phenyl-4,5,6,7-tetrahydro-1H-pyrazolo[3,4-b]pyridin-5-yl)-4-(trifluoromethyl)pyrimidine-2-carboxamide] as the compound, how does the IC50 [1] read?
Its IC50 is 1000 to 3000 nM.

And the IC50 [2]?
Its IC50 is 1000 to 3000 nM.

With `CCN1C(=O)C(NC(=O)c2cccc(C(F)(F)F)c2)[C@@H](c2cccc(NC(=O)C(Cl)Cl)c2)c2c(C)nn(-c3ccccc3)c21` (stereo in doubt) [Compound I-42, N-((4S,5R)-4-(3-(2,2-dichloroacetamido)phenyl)-7-ethyl-3-methyl-6-oxo-1-phenyl-4,5,6,7-tetrahydro-1H-pyrazolo[3,4-b]pyridin-5-yl)-3-(trifluoromethyl)benzamide] as the compound, how does the IC50 [1] read?
Its IC50 is 1000 to 3000 nM.

And the IC50 [3]?
Its IC50 is greater than 3000 nM.
